Where “and” joins values, the source holds several entries; their conditions need not be identical. Identical values can stand only once. Inconclusive results and toxic doses are left out. Cut-off read from the data, not from the text of the source: active = T/C of 150% or more; inactive = T/C below 125%.
Test system: L1210 leukemia ip in BDF1 mice, survival T/C
Assay: NCI In Vivo Anticancer Drug Screen. Data for tumor model L1210 Leukemia (intraperitoneal) in B6D2F1 (BDF1) mice
Details: endpoint: mean survival time, higher = longer survival
Outline: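 Tumor cells were implanted, animals were treated, and survival was followed. The result divides the treated measurement by the vehicle-control measurement.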

[1] = dose: 100.0 mg/kg/injection, schedule: Q01DX001 (ip), vehicle: Klucel (hydroxypropylcellulose) (HPC)
[2] = dose: 200.0 mg/kg/injection, schedule: Q01DX001 (ip), vehicle: Klucel (hydroxypropylcellulose) (HPC)
[3] = dose: 100.0 mg/kg/injection, schedule: Q01DX001 (ip), vehicle: carboxymethylcellulose (CMC)
[4] = dose: 200.0 mg/kg/injection, schedule: Q01DX001 (ip), vehicle: carboxymethylcellulose (CMC)
[5] = dose: 400.0 mg/kg/injection, schedule: Q01DX001 (ip), vehicle: carboxymethylcellulose (CMC)
[6] = dose: 100.0 mg/kg/injection, schedule: Q01DX009 (ip), vehicle: Klucel (hydroxypropylcellulose) (HPC)
[7] = dose: 100.0 mg/kg/injection, schedule: Q04DX003 (ip), vehicle: Klucel (hydroxypropylcellulose) (HPC)
[8] = dose: 200.0 mg/kg/injection, schedule: Q01DX009 (ip), vehicle: Klucel (hydroxypropylcellulose) (HPC)
[9] = dose: 200.0 mg/kg/injection, schedule: Q04DX003 (ip), vehicle: Klucel (hydroxypropylcellulose) (HPC)
[10] = dose: 400.0 mg/kg/injection, schedule: Q01DX009 (ip), vehicle: Klucel (hydroxypropylcellulose) (HPC)
[11] = dose: 400.0 mg/kg/injection, schedule: Q04DX003 (ip), vehicle: Klucel (hydroxypropylcellulose) (HPC)
[12] = dose: 100.0 mg/kg/injection, schedule: Q04DX002 (ip), vehicle: Klucel (hydroxypropylcellulose) (HPC)
[13] = dose: 200.0 mg/kg/injection, schedule: Q04DX002 (ip), vehicle: Klucel (hydroxypropylcellulose) (HPC)
[14] = dose: 400.0 mg/kg/injection, schedule: Q04DX002 (ip), vehicle: Klucel (hydroxypropylcellulose) (HPC)
[15] = dose: 100.0 mg/kg/injection, schedule: Q04DX003 (ip), vehicle: saline with Tween-80
[16] = dose: 200.0 mg/kg/injection, schedule: Q04DX003 (ip), vehicle: saline with Tween-80
[17] = dose: 400.0 mg/kg/injection, schedule: Q04DX003 (ip), vehicle: saline with Tween-80
[18] = dose: 100.0 mg/kg/injection, schedule: Q01DX001 (ip), vehicle: saline
[19] = dose: 200.0 mg/kg/injection, schedule: Q01DX001 (ip), vehicle: saline
[20] = dose: 400.0 mg/kg/injection, schedule: Q01DX001 (ip), vehicle: saline
[21] = dose: 400.0 mg/kg/injection, schedule: Q01DX001 (ip), vehicle: Klucel (hydroxypropylcellulose) (HPC)

Measured: T/C

COc1ccc(C(CCCC(=O)O)C(CC(=O)O)C(=O)O)cc1 (stereo not given)
inactive: dose: 75.0 mg/kg/injection, schedule: Q04DX003 (ip), vehicle: saline 96 % of control | dose: 150.0 mg/kg/injection, schedule: Q04DX003 (ip), vehicle: saline 103 % of control | dose: 300.0 mg/kg/injection, schedule: Q04DX003 (ip), vehicle: saline 112 % of control

CCOC(=O)C(C/C=C/c1ccccc1)C(C)=O (stereo not given)
inactive: dose: 100.0 mg/kg/injection, schedule: Q04DX002 (ip), vehicle: saline with Tween-80 90 % of control | dose: 200.0 mg/kg/injection, schedule: Q04DX002 (ip), vehicle: saline with Tween-80 97 % of control | dose: 400.0 mg/kg/injection, schedule: Q04DX002 (ip), vehicle: saline with Tween-80 90 % of control

BrC1C2C3C=CC4C(C=C3)C4C12 (stereo not given)
inactive: dose: 50.0 mg/kg/injection, schedule: Q01DX001 (ip), vehicle: Klucel (hydroxypropylcellulose) (HPC) 100 % of control and 101 % of control | [1] 98 % of control and 111 % of control | [2] 108 % of control and 93 % of control

O=C(O)C1C=CCC(C(=O)O)C1 (stereo not given)
inactive: dose: 100.0 mg/kg/injection, schedule: Q04DX003 (ip), vehicle: saline 98 % of control | dose: 200.0 mg/kg/injection, schedule: Q04DX003 (ip), vehicle: saline 108 % of control | dose: 400.0 mg/kg/injection, schedule: Q04DX003 (ip), vehicle: saline 95 % of control

COc1cc(/C=N\NC(=O)c2cccc(Cl)c2)ccc1N(CCCl)CCCl
inactive: dose: 50.0 mg/kg/injection, schedule: Q01DX001 (ip), vehicle: carboxymethylcellulose (CMC) 100 % of control | [3] 103 % of control | [4] 105 % of control | [5] 103 % of control

CC1CCN(c2ccc([N+](=O)[O-])cc2)CC1
inactive: [6] 100 % of control | [7] 97 % of control | [8] 99 % of control | [9] 95 % of control | [10] 100 % of control | [11] 101 % of control

Cc1ccc(C(=O)N/N=C/c2c(O)ccc3ccccc23)cc1
inactive: [12] 89 % of control | [13] 89 % of control | [14] 96 % of control

Cc1cc(Cl)ccc1NC(=O)c1ccc([N+](=O)[O-])cc1
inactive: dose: 100.0 mg/kg/injection, schedule: Q01DX009 (ip), vehicle: saline with Tween-80 92 % of control | [15] 92 % of control | dose: 200.0 mg/kg/injection, schedule: Q01DX009 (ip), vehicle: saline with Tween-80 86 % of control | [16] 93 % of control | [17] 92 % of control

CC1=CC(=O)CC(C)C1 (stereo not given)
inactive: [18] 111 % of control | [19] 94 % of control | [20] 103 % of control

CN(C)c1ccc2c(c1)N=Nc1cc(N(C)C)ccc1C2
inactive: [1] 87 % of control | [2] 91 % of control | [21] 87 % of control

Nc1[nH]c(=S)[nH]c(=S)c1N
inactive: dose: 125.0 mg/kg/injection, schedule: Q01DX Z (ip), vehicle: methylcellulose (MC) 101 % of control

Cc1sc(-c2ccccc2)nc1-c1ccc(N=Cc2ccc(N(CCCl)CCCl)cc2)cc1
inactive: [3] 101 % of control | [4] 101 % of control | [5] 106 % of control

CCOC(=O)C(Cc1ccc(OCc2ccccc2)c(OCc2ccccc2)c1)(NC=O)C(=O)OCC
inactive: dose: 100.0 mg/kg/injection, schedule: Q01DX001 (ip), vehicle: other 94 % of control | dose: 200.0 mg/kg/injection, schedule: Q01DX001 (ip), vehicle: other 92 % of control | dose: 400.0 mg/kg/injection, schedule: Q01DX001 (ip), vehicle: other 87 % of control

C[C@]12CC[C@@H]3c4ccc(OC(=O)Cc5ccc(N(CCCl)CCCl)cc5)cc4CC[C@H]3[C@@H]1CC[C@@H]2OC(=O)Cc1ccc(N(CCCl)CCCl)cc1
inactive: dose: 100.0 mg/kg/injection, schedule: Q01DX001 (sc), vehicle: steriod suspending solution 97 % of control | dose: 200.0 mg/kg/injection, schedule: Q01DX001 (sc), vehicle: steriod suspending solution 102 % of control | dose: 400.0 mg/kg/injection, schedule: Q01DX001 (sc), vehicle: steriod suspending solution 102 % of control

CC(CCC(C)(C)O)C1CCC2C3C(O)CC4CCCCC4(C)C3CC(O)C12C (stereo not given)
inactive: [15] 89 % of control | [16] 91 % of control | [17] 88 % of control

O=C(O)C1OC(n2cc(F)c(=O)[nH]c2=O)CC1O (stereo not given)
inactive: dose: 50.0 mg/kg/injection, schedule: Q01DX001 (ip), vehicle: saline 101 % of control | [18] 101 % of control | [19] 98 % of control | [20] 110 % of control

CC(=O)Nc1ccc(Cc2ccc(Cl)cc2)cc1
inactive: [18] 95 % of control | [19] 98 % of control

NC(=O)/C=C/c1c[nH]c2nccnc12
inactive: dose: 1.56 mg/kg/injection, schedule: Q01DX009 (ip), vehicle: water 100 % of control | dose: 3.12 mg/kg/injection, schedule: Q01DX009 (ip), vehicle: water 95 % of control | dose: 6.25 mg/kg/injection, schedule: Q01DX009 (ip), vehicle: water 100 % of control | dose: 12.5 mg/kg/injection, schedule: Q01DX009 (ip), vehicle: water 103 % of control | dose: 25.0 mg/kg/injection, schedule: Q01DX009 (ip), vehicle: water 86 % of control and 90 % of control

N/C(=N\OC(=O)c1ccccc1)c1ccccc1
inactive: dose: 50.0 mg/kg/injection, schedule: Q04DX002 (ip), vehicle: Klucel (hydroxypropylcellulose) (HPC) 96 % of control | [12] 104 % of control | [13] 93 % of control

CCN(CC)CCC(CCN(CC)CC)(CNC(=O)CN(CC)CC)c1cccc2ccccc12
inactive: dose: 12.5 mg/kg/injection, schedule: Q01DX009 (ip), vehicle: saline 97 % of control | dose: 12.5 mg/kg/injection, schedule: Q04DX003 (ip), vehicle: saline 87 % of control | dose: 25.0 mg/kg/injection, schedule: Q01DX009 (ip), vehicle: saline 114 % of control | dose: 25.0 mg/kg/injection, schedule: Q04DX003 (ip), vehicle: saline 95 % of control | dose: 50.0 mg/kg/injection, schedule: Q01DX009 (ip), vehicle: saline 108 % of control | dose: 50.0 mg/kg/injection, schedule: Q04DX003 (ip), vehicle: saline 88 % of control

CC1(c2ccccc2)NC(=O)NC1=O (stereo not given)
inactive: [1] 92 % of control | [2] 95 % of control | [21] 95 % of control

Clc1ccc(C2(CBr)OCCO2)cc1
inactive: [6] 98 % of control and 105 % of control | [12] 95 % of control and 100 % of control | [8] 101 % of control and 91 % of control | [13] 97 % of control and 98 % of control | [10] 97 % of control and 98 % of control | [14] 98 % of control and 108 % of control

COC(=O)C(c1ccccc1)C(Br)C(=O)c1ccccc1 (stereo not given)
inactive: [6] 86 % of control | [7] 97 % of control | [8] 86 % of control | [9] 102 % of control | [10] 86 % of control | [11] 95 % of control

NC(N)=NNC(=S)S
inactive: dose: 25.0 mg/kg/injection, schedule: Q01DX009 (ip), vehicle: saline with Tween-80 102 % of control | dose: 50.0 mg/kg/injection, schedule: Q01DX009 (ip), vehicle: saline with Tween-80 110 % of control | dose: 50.0 mg/kg/injection, schedule: Q04DX003 (ip), vehicle: saline with Tween-80 95 % of control | [15] 92 % of control

Brc1ccccc1-c1ccccc1-c1ccccc1
inactive: [15] 92 % of control | [16] 100 % of control | [17] 92 % of control

O=c1[nH]c2ccccc2c(C(Cl)(Cl)Cl)c1Cl
inactive: dose: 12.5 mg/kg/injection, schedule: Q01DX009 (ip), vehicle: Klucel (hydroxypropylcellulose) (HPC) 93 % of control | dose: 25.0 mg/kg/injection, schedule: Q01DX009 (ip), vehicle: Klucel (hydroxypropylcellulose) (HPC) 90 % of control | dose: 50.0 mg/kg/injection, schedule: Q01DX009 (ip), vehicle: Klucel (hydroxypropylcellulose) (HPC) 100 % of control and 108 % of control | [6] 93 % of control

— PubChem BioAssay AID248 (DTP/NCI, 2004)
